This is an account of results in ChEMBL document CHEMBL5291721, “A preclinical secondary pharmacology resource illuminates target-adverse drug reaction associations of marketed drugs” (Nat Commun, 2023).

Test [1] deals with 3',5'-cyclic-AMP phosphodiesterase 4A (Homo sapiens, UniProt P27815). In kind it is functional.
In test [2] the target is T1, Thromboxane A2 receptor (Homo sapiens, UniProt P21731).
T1 sequence (P21731 whole entry): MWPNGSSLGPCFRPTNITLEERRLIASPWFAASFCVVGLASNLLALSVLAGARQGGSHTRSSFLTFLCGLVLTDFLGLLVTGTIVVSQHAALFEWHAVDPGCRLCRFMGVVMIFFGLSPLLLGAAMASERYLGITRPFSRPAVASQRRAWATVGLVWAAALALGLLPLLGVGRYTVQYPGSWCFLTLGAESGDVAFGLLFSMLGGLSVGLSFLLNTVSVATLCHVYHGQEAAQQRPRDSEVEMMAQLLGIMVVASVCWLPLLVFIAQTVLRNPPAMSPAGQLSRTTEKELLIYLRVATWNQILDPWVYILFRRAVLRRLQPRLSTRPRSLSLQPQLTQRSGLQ
In kind it is functional, cell-based.

Test [3] addresses D(1A) dopamine receptor (Homo sapiens, UniProt P21728).
For test [4], the target named is Sodium-dependent noradrenaline transporter (Homo sapiens, UniProt P23975).
The target in test [5] is T2, Muscarinic acetylcholine receptor M1 (Homo sapiens, UniProt P11229).
T2 sequence (P11229 whole entry): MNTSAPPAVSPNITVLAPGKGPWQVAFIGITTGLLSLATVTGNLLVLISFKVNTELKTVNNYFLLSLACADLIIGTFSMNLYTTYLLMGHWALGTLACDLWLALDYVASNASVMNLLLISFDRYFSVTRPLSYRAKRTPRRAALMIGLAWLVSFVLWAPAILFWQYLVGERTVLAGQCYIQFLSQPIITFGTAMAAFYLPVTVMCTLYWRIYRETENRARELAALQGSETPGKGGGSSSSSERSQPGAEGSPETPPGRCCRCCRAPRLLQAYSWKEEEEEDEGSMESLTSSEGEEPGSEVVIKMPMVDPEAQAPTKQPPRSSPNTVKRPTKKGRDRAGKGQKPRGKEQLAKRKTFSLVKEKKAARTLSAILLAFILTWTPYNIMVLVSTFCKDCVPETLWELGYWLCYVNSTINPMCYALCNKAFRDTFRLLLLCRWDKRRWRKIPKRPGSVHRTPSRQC
In kind it is functional, cell-based.

The target in test [6] is T3, Progesterone receptor (Homo sapiens, UniProt P06401).
T3 sequence (P06401 whole entry): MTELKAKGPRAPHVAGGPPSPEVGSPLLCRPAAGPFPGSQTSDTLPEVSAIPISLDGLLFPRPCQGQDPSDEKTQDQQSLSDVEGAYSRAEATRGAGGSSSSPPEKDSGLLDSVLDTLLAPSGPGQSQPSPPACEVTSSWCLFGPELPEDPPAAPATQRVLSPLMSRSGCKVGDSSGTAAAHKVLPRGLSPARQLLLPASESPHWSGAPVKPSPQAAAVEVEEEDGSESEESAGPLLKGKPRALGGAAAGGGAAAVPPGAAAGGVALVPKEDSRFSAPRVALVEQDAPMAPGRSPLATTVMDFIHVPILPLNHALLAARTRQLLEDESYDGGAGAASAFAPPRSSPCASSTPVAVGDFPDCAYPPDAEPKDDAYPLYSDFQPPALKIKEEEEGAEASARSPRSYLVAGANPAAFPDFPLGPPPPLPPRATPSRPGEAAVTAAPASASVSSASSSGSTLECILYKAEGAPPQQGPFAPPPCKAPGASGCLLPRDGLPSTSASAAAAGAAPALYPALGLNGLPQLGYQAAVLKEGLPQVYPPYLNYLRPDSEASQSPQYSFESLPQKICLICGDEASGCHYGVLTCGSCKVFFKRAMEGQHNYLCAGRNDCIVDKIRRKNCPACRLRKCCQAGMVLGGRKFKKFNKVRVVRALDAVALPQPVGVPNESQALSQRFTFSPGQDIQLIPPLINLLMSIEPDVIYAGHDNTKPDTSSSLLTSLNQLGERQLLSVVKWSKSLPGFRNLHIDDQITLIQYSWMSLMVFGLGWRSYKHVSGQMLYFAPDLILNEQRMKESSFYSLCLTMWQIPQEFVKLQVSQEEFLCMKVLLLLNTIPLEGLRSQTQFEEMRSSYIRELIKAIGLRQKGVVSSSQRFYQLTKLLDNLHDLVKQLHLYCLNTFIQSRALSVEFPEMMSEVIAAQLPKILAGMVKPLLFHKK

Test [7] addresses Sodium-dependent serotonin transporter (Homo sapiens, UniProt P31645).
Test [8] has as its target T4, Alpha-1A adrenergic receptor (Homo sapiens, UniProt P35348).
T4 sequence (P35348 whole entry): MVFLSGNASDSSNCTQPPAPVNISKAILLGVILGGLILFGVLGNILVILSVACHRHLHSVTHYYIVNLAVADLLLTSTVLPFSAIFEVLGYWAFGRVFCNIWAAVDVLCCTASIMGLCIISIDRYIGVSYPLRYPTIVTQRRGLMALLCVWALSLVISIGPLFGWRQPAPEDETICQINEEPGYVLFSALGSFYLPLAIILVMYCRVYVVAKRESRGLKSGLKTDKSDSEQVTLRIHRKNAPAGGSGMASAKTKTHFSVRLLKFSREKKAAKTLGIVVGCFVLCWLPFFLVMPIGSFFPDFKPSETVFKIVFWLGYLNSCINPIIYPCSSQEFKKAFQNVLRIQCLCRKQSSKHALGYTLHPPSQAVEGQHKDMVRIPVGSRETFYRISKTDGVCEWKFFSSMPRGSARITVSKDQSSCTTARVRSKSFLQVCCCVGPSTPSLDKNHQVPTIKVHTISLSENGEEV
In kind it is functional, cell-based.

For test [9], the target named is Sodium-dependent dopamine transporter (Homo sapiens, UniProt Q01959).
For test [10], the target named is T5, 5-hydroxytryptamine receptor 1A (Homo sapiens, UniProt P08908).
T5 sequence (P08908 whole entry): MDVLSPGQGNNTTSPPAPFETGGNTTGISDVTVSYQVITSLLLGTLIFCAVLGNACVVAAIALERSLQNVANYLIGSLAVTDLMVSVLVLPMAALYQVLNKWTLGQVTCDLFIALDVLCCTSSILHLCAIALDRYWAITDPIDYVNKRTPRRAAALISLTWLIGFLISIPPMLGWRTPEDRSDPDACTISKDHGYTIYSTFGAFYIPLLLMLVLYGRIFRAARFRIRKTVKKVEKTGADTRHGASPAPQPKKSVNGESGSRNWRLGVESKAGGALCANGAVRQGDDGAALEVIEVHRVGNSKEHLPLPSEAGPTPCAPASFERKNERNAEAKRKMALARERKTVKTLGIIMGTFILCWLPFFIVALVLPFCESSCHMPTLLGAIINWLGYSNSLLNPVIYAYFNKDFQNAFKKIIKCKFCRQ
Note: assay procedure not described here.

Chain of Sodium-dependent noradrenaline transporter (P23975 whole entry): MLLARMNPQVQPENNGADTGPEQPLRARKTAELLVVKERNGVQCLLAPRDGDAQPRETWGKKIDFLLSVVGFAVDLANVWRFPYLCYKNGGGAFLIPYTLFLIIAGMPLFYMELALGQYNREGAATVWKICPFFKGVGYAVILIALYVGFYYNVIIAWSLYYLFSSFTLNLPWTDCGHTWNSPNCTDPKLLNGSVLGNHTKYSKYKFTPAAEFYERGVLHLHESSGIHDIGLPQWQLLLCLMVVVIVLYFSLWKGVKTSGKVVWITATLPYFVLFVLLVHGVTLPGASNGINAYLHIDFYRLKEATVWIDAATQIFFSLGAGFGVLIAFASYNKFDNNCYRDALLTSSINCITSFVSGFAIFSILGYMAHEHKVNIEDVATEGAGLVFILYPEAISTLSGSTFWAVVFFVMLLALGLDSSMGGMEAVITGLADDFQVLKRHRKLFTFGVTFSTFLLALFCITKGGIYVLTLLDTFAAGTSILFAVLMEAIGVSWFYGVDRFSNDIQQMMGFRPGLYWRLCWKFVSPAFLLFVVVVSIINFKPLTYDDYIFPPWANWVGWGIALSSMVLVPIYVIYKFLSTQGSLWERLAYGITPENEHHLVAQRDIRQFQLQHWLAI
Chain of Sodium-dependent serotonin transporter (P31645 whole entry): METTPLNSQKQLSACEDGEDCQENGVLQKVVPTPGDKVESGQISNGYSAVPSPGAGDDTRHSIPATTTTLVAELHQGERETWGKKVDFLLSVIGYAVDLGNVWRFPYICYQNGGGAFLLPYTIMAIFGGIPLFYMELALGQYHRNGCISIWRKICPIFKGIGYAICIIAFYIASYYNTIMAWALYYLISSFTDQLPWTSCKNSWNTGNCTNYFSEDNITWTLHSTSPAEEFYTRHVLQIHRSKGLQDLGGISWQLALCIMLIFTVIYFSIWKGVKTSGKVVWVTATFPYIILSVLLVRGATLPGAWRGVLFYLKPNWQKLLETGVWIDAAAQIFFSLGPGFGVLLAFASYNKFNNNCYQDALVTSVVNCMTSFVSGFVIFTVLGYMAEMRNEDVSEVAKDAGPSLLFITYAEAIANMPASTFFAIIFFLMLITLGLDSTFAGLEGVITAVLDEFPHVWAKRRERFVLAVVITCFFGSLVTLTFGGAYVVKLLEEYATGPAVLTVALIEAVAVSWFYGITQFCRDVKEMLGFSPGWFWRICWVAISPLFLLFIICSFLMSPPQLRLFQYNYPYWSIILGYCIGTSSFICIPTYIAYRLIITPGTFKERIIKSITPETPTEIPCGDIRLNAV
Chain of Sodium-dependent dopamine transporter (Q01959 whole entry): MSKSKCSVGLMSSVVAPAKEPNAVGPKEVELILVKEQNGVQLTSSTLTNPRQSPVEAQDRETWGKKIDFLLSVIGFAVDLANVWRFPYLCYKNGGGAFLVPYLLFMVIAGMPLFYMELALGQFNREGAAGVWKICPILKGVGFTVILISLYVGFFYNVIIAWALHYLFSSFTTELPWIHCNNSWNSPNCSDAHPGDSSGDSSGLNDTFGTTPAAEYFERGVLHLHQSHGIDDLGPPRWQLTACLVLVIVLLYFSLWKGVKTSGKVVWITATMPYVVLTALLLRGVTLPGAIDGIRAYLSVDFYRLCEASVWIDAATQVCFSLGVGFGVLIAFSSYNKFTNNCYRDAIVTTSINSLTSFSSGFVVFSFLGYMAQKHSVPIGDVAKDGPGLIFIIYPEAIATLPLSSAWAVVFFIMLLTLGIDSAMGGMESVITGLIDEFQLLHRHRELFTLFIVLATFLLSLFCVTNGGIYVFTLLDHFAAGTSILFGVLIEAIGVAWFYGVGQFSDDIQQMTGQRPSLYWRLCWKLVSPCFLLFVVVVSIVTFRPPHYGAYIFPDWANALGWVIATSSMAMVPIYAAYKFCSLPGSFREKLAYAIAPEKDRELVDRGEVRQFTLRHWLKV
Chain of D(1A) dopamine receptor (P21728 whole entry): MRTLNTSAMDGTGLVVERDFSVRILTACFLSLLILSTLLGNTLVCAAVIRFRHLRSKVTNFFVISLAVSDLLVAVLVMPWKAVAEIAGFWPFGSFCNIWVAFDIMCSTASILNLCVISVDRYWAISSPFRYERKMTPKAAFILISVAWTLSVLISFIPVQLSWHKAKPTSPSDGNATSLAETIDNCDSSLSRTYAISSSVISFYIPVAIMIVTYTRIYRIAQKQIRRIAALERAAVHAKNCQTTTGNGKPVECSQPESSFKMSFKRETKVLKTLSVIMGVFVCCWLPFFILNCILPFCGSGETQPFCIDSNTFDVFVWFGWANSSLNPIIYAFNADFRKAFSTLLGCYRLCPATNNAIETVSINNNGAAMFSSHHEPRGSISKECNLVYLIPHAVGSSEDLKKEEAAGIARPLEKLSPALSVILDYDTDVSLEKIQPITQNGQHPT
Chain of 3',5'-cyclic-AMP phosphodiesterase 4A (P27815 whole entry): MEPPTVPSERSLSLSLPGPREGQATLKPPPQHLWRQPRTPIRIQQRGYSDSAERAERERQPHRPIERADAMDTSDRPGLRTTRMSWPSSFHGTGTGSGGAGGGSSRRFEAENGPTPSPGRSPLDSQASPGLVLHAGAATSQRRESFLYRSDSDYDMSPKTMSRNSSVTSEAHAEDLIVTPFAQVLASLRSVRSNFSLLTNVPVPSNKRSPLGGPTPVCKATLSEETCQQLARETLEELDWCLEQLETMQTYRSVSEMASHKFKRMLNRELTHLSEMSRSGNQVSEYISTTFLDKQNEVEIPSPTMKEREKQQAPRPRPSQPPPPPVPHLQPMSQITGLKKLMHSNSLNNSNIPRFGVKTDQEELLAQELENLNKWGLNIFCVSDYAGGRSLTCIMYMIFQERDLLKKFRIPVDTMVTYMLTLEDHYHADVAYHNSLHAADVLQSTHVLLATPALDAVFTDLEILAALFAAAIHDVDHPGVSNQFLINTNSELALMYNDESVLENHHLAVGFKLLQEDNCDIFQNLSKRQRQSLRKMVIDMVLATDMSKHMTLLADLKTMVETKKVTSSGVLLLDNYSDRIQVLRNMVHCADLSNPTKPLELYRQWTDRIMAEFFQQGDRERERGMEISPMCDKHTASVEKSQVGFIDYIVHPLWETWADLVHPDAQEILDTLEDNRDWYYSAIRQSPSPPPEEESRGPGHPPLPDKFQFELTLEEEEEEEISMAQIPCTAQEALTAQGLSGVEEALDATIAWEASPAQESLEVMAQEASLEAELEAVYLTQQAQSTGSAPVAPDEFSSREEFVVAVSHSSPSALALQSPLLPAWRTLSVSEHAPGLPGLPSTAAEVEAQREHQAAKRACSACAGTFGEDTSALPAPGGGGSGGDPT

Usually AC50 stands for the midpoint of the concentration-response curve, whichever way the signal moves. Low readings indicate activity at low concentration, high ones activity only at high concentration. As to `Nc1ccc(S(=O)(=O)c2cnc(N)s2)cc1` [THIAZOLSULFONE], the AC50 in test [1], in [2], in [3], in test [4], in test [5] and in test [6] was above 30 µM in each case. In addition, the AC50 in test [7] is above 30 µM; in test [8], above 30 µM; in test [9], 24.3 µM; in test [10], above 30 µM.
On to `CCCCS(=O)(=O)N[C@@H](Cc1ccc(OCCCCC2CCNCC2)cc1)C(=O)O` [TIROFIBAN], for which the AC50 in [1] is above 30 µM; in [2], above 10 µM; in test [3], above 30 µM; in test [4], above 30 µM; in [5] it was above 30 µM; in [6] it was above 30 µM. Also, the AC50 in [7] is 9.96 µM; in [8], above 30 µM; in test [9], above 30 µM; in test [10], above 30 µM.
`CC(CNC(=O)c1ccccc1)C(=O)OCC(=O)[C@@]12OC(C)(C)O[C@@H]1C[C@H]1[C@@H]3CCC4=CC(=O)C=C[C@]4(C)[C@@]3(F)[C@@H](O)C[C@@]12C` (stereo not given in full) [TRIAMCINOLONE BENETONIDE]: the AC50 in [1], in test [2], in test [3], in [4], in [5] and in test [6] was above 30 µM each time. Also, the AC50 in [7], in test [8], in test [9] and in test [10] was above 30 µM in each case.
With `O=C(Nc1ccc(Cl)cc1)Nc1ccc(Cl)c(Cl)c1` [TRICLOCARBAN], the AC50 in test [1] was 25.4 µM; in test [2], above 30 µM; in [3], above 30 µM; in [4] it was 0.863 µM; in test [5], above 30 µM; in test [6], above 30 µM. The AC50 in test [7] was above 30 µM; in [8], above 30 µM; in test [9], above 10 µM; in [10], above 30 µM.
Take `COC1=C(OC)C(=O)C(C/C=C(\C)CC/C=C(\C)CC/C=C(\C)CC/C=C(\C)CC/C=C(\C)CC/C=C(\C)CC/C=C(\C)CC/C=C(\C)CC/C=C(\C)CCC=C(C)C)=C(C)C1=O` [UBIDECARENONE]: the half-maximal activity concentration (AC50) in test [1], in test [2], in test [3], in test [4], in [5] and in [6] was above 30 µM each time. The half-maximal activity concentration (AC50) in test [7], in [8], in [9] and in test [10] was above 30 µM in each case.
Take `OC[C@@H](O)[C@H](O)[C@@H](O)CO` [XYLITOL]: the AC50 in test [1], in test [2], in test [3], in test [4], in [5] and in [6] was above 30 µM each time. Also, the AC50 in test [7], in test [8], in [9] and in test [10] was above 30 µM each time.
